Assay results from PMC10820479, “An Improved In Vitro Blood-Brain Barrier Model for the Evaluation of Drug Permeability Using Transwell with Shear Stress” (Pharmaceutics, 2023).
Structures can show the parent of a compound that is named as a salt. Where two headings read alike, the source gives them in different places.

How the values were obtained:
[1] = Permeability test in the optimized annular shaking dish (AS) BBB model; settings: human
Experimental: (§1) The culture inserts (Costar®, Washington, DC, USA, 6.5 mm diameter) of polycarbonate (PC) and polyester (PET) membrane were procured from Corning Inc. (Corning, NY, USA). […] After washing twice with PBS, the cells were seeded at a density of 1 × 10^5 hCMEC/D3 cells/well in the apical chamber and 3 × 10^4 U87MG cells/well on the basolateral side of the insert. The cultivation method was modified from that described in the literature. Briefly, the insert was inverted, and U87MG cells were initially seeded. The insert was flipped 3–4 h after seeding the U87MG cells. Subsequently, hCMEC/D3 cells were seeded 1 day later.
(§2) To prevent nonspecific binding, all compounds were pre-incubated for 30 min prior to the permeability study. The samples were collected at 0 min from the donor and at 30, 60, and 90 min from the acceptor and immediately replaced with a new transport buffer. Incubation was carried out in a humidified 5% CO2 environment at 37 °C with shaking at 100 rpm.
(§3) After culturing the cells in culture inserts, as described in Section 2.3, they were transferred to the AS prepared on day 3, and cultivation was carried out with orbital shaking at 150 rpm until day 17 (Figure 1b). The cultivated AS BBB model was employed to investigate the effects of the AS size, as well as the influence of FBS and ITS.
(§4) Chromatographic separations were performed on Agilent Poroshell 120 EC-C18 (3.0 × 50 mm, 2.7 µm; Agilent Technologies, Inc., Santa Clara, CA, USA) and YMC triart C18 (2.0 × 50 mm, 3 µm; YMC Co., Ltd., Kyoto, Japan) columns using 5 mM ammonium formate in water (pH 4) and methanol.
(§5) The optimized AS BBB model was evaluated as follows.

[2] = test system: in vitro AS BBB model (hCMEC/D3 co-cultured with U87MG); experiment: as above; settings: optimized AS BBB model
Experimental: as §1, §2, §3, §4, §5

[3] = monkey; unbound plasma-CSF partition coefficient; cited from earlier work
[4] = rat; unbound plasma-CSF partition coefficient; cited from earlier work
[5] = test system: P-gp; experiment: Efflux transporter inhibition assay, P-gp, AS BBB model; assay type: in vitro ADME; settings: human, optimized AS BBB model
Experimental: A modified method from a previously published paper was used for the inhibition assay. […] The bidirectional permeability of substrates was evaluated by measuring changes in Papp and the efflux ratio for both the inhibitor- and vehicle-treated groups. The concentration of dantrolene was determined using liquid chromatography with tandem mass spectrometry (LC-MS/MS).

[6] = test system: P-glycoprotein (P-gp); experiment: Rhodamine 123 efflux (bidirectional permeability, P-gp activity); settings: for efflux ratio: 10 μM; for efflux ratio at 90 min, 10 μM: human, not told
Experimental: Bidirectional permeability tests were performed at time points of 0, 30, 60, and 90 min with shaking at 100 rpm. Each sample was measured at 480 nm/530 nm (excitation/emission wavelengths) using the VICTOR® Nivo multimode plate reader. The apparent permeability coefficient (Papp) was determined using Equation (2):Papp (cm/s) = dQ/dt × 1/(A × C0)(2) where: • A is the surface area of the insert filter membrane (cm^2) • C0 is the initial concentration in the donor solution (μM) • dQ/dt is the amount of the drug transported within a given time period (pmol/s)

[7] = test system: hCMEC/D3 cell layer on transwell inserts; experiment: Lucifer yellow (LY) diffusion, cell layer integrity; settings: AS BBB model (discussion)

Question: For NC(=O)N1c2ccccc2C=Cc2ccccc21 [Carbamazepine, carbamazepine], which Papp at 90 min, 20 μM [1] is on record?
Answer: The Papp at 90 min, 20 μM was 29 ± 4.4 ×10⁻⁶ cm/s.

Question: What about the “permeability (in words)” value [2] of the same compound?
Answer: The value was “high permeability”.

Question: What about the “Kp,uu,CSF” value [3] of the same compound?
Answer: The value was 0.979 (monkey) ^3.

Question: Which Papp [1] does the source give for Cc1ncc2n1-c1ccc(Cl)cc1C(c1ccccc1F)=NC2 [Midazolam] here?
Answer: The Papp was 41.5 ± 2.8 ×10⁻⁶ cm/s.

Question: And the “Kp,uu,CSF” value [4]?
Answer: The value was 1.35 (rat) ^2.

Question: Which Papp at 90 min, 20 μM [1] does the source give for O=C1NC(=O)C(c2ccccc2)(c2ccccc2)N1 [Phenytoin, phenytoin sodium] here?
Answer: The Papp at 90 min, 20 μM was 21.8 ± 1.2 ×10⁻⁶ cm/s.

Question: For CC(C)NCC(O)COc1cccc2ccccc12 (stereo not shown) [Propranolol, propranolol HCl], which Papp at 90 min, 20 μM [1] is on record?
Answer: Its Papp at 90 min, 20 μM is 24.6 ± 4.5 ×10⁻⁶ cm/s.

Question: For COC(=O)c1ccccc1-c1c2ccc(=N)cc-2oc2cc(N)ccc12 [Rhodamine123, rhodamine 123], which Papp at 90 min, 20 μM [1] is on record?
Answer: The Papp at 90 min, 20 μM was 0.67 ± 0.14 ×10⁻⁶ cm/s.

Question: What about the “permeability (in words)” value [2] of the same compound?
Answer: Its value is “low”.

Question: What about the efflux ratio at 10 μM ([5]; with cyclosporin A 10 μM, with P-gp inhibitor cyclosporin A 10 μM) of the same compound?
Answer: The efflux ratio at 10 μM was 1.6 ± 0.13.

Question: What about the efflux ratio at 10 μM ([5]; without inhibitor, 10 μM) of the same compound?
Answer: Its efflux ratio at 10 μM is 4.2 ± 0.15.

Question: And the efflux ratio ([6]; 15 cm AS group)?
Answer: The efflux ratio was “exceeding two”.

Question: And the efflux ratio ([6]; 15 cm AS, 5% FBS + ITS)?
Answer: The efflux ratio was 4.04 ± 0.04.

Question: And the efflux ratio at 90 min, 10 μM ([6]; 15 cm AS, 2% FBS + ITS)?
Answer: Its efflux ratio at 90 min, 10 μM is 6.73 ± 0.94.

Question: What about the efflux ratio at 90 min, 10 μM ([6]; 15 cm AS, 5% FBS) of the same compound?
Answer: Its efflux ratio at 90 min, 10 μM is 2.4 ± 0.05.

Question: What about the efflux ratio at 90 min, 10 μM ([6]; 15 cm AS, 5% FBS + ITS) of the same compound?
Answer: The efflux ratio at 90 min, 10 μM was 4 ± 0.04.

Question: Which Papp at 90 min, 20 μM [1] does the source give for CCN1CCCC1CNC(=O)c1cc(S(N)(=O)=O)ccc1OC (stereo not shown) [Sulpiride, sulpiride] here?
Answer: Its Papp at 90 min, 20 μM is 10.2 ± 0.82 ×10⁻⁶ cm/s.

Question: What about the “Kp,uu,CSF” value [4] of the same compound?
Answer: The value was 0.049 (rat) ^2.

Question: With lucifer yellow CH dipotassium salt [LY] as the compound, how does the “transport of LY through the paracellular pathway” value [7] read?
Answer: The value was “less than 1%”.
